Earlier results, collected in patent publication US20120183610A1, “GLUCOCORTICOID THERAPY” (priority 2009, published 2012).

Experiments:
[1] = dose equivalent to 20 mg hydrocortisone
[2] = after 2.3 to 6.8 months; mean dose reduced to 20.8±1.0 mg; p<0.01
[3] = 30 to 15 mg daily; after 3 months

CC(=O)OCC(=O)[C@@]1(O)CC[C@H]2[C@@H]3CCC4=CC(=O)CC[C@]4(C)[C@H]3C(=O)C[C@@]21C [Cortisone acetate]
Equivalent amount [1]: 25 mg

C[C@]12CCC(=O)C=C1CC[C@@H]1[C@@H]2[C@@H](O)C[C@@]2(C)[C@H]1CC[C@]2(O)C(=O)CO [Hydrocortisone]
Equivalent amount [1]: 20 mg
serum concentration of osteocalcin at re-evaluation [2]: 19.9 ng/mL
body weight and cardiovascular functional variables after dose reduction [3]: no change in body weight or any of the cardiovascular functional variables studied
BMI before dose reduction (11 patients with secondary adrenal insufficiency): 31.5±1.1 kg/m^2
fasting glucose and insulin levels after dose reduction (dose reduced on average by 50%): unaffected
body weight reduction, on average (dose reduced on average by 50%, 11 patients, follow-up 6-12 months): 7.1 kg
BMI after dose reduction (dose reduced on average by 50%, follow-up 6-12 months): 29.4±1.0 kg/m^2

C[C@@H]1C[C@H]2[C@@H]3C[C@H](F)C4=CC(=O)C=C[C@]4(C)[C@H]3[C@@H](O)C[C@]2(C)[C@@]1(O)C(=O)CO [Paramethasone]
Equivalent amount [1]: 2 mg

C[C@]12C=CC(=O)C=C1CC[C@@H]1[C@@H]2[C@@H](O)C[C@@]2(C)[C@H]1CC[C@]2(O)C(=O)CO [Prednisolone]
Equivalent amount [1]: 5 mg

C[C@]12C=CC(=O)C=C1CC[C@H]1[C@@H]3C[C@@H](O)[C@](O)(C(=O)CO)[C@@]3(C)C[C@H](O)[C@@]12F [Triamcinolone]
Equivalent amount [1]: 4 mg
